How the values were obtained:
Conditions in all cases: exposure time: 72 h
E34 [1] = patient-derived glioblastoma stem cells of proneural subtype; experiment: phenotypic distance (Euclidean, principal components) from DMSO controls (arbitrary units); higher = stronger morphological change
E31 [2] = patient-derived glioblastoma stem cells of proneural subtype; experiment: as above
E28 [3] = patient-derived glioblastoma stem cells of classical subtype; experiment: as above
E57 [4] = patient-derived glioblastoma stem cells of mesenchymal subtype; experiment: as above
E21 [5] = patient-derived glioblastoma stem cells of mesenchymal subtype; experiment: as above
E13 [6] = patient-derived glioblastoma stem cells of classical subtype; experiment: as above
FT3469 [7] = normal neural stem cell line; experiment: as above
E34 [8] = experiment: surviving fraction (nuclei count normalised to DMSO); higher = more cells surviving (less toxic)
E31 [9] = experiment: as above
E28 [10] = experiment: as above
E57 [11] = experiment: as above
E21 [12] = experiment: as above
E13 [13] = experiment: as above
FT3469 [14] = experiment: as above
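For phenotypic distance (Euclidean, principal components) from DMSO controls in this document: cell Painting imaging in 384-well plates, CellProfiler features reduced to at least 20 principal components, Euclidean distance versus same-plate DMSO vehicle wells (0.1% v/v), median over six images per well.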
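For surviving fraction (nuclei count normalised to DMSO) in this document: nuclei counted by high-content imaging of Hoechst-stained cells in laminin-coated 384-well plates, relative to 0.1% DMSO vehicle wells, with staurosporine as cell-death control.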

CC(=O)O[C@@]12CO[C@@H]1C[C@H](O)[C@@]1(C)C(=O)[C@H](O)C3=C(C)[C@@H](OC(=O)[C@H](O)[C@@H](NC(=O)OC(C)(C)C)c4ccccc4)C[C@@](O)([C@@H](OC(=O)c4ccccc4)[C@H]21)C3(C)C [Docetaxel]
Conditions | phenotypic distance | surviving fraction
E13 [6], 4.1 nM | 5.48 | –
E13 [6], 12.3 nM | 5.06 | –
E13 [6], 37 nM | 5.13 | –
E13 [6], 111.1 nM | 5.06 | –
E13 [6], 333.3 nM | 5.38 | –
E13 [6], 1000 nM | 5.66 | –
E13 [6], 3000 nM | 5.29 | –
E13 [13], 4.1 nM | – | 0.244
E13 [13], 12.3 nM | – | 0.245
E13 [13], 37 nM | – | 0.23
E13 [13], 111.1 nM | – | 0.267
E13 [13], 333.3 nM | – | 0.26
E13 [13], 1000 nM | – | 0.245
E13 [13], 3000 nM | – | 0.233
E21 [5], 4.1 nM | 5.81 | –
E21 [5], 12.3 nM | 6.42 | –
E21 [5], 37 nM | 6.23 | –
E21 [5], 111.1 nM | 6.28 | –
E21 [5], 333.3 nM | 6.05 | –
E21 [5], 1000 nM | 6.55 | –
E21 [5], 3000 nM | 6.95 | –
E21 [12], 4.1 nM | – | 0.256
E21 [12], 12.3 nM | – | 0.291
E21 [12], 37 nM | – | 0.273
E21 [12], 111.1 nM | – | 0.267
E21 [12], 333.3 nM | – | 0.324
E21 [12], 1000 nM | – | 0.366
E21 [12], 3000 nM | – | 0.306
E28 [3], 4.1 nM | 3.2 | –
E28 [3], 12.3 nM | 3.04 | –
E28 [3], 37 nM | 3.71 | –
E28 [3], 111.1 nM | 4 | –
E28 [3], 333.3 nM | 4.1 | –
E28 [3], 1000 nM | 3.51 | –
E28 [3], 3000 nM | 3.95 | –
E28 [10], 4.1 nM | – | 0.337
E28 [10], 12.3 nM | – | 0.342
E28 [10], 37 nM | – | 0.315
E28 [10], 111.1 nM | – | 0.374
E28 [10], 333.3 nM | – | 0.359
E28 [10], 1000 nM | – | 0.377
E28 [10], 3000 nM | – | 0.43
E31 [2], 4.1 nM | 3.61 | –
E31 [2], 12.3 nM | 4.17 | –
E31 [2], 37 nM | 4.04 | –
E31 [2], 111.1 nM | 3.51 | –
E31 [2], 333.3 nM | 4.45 | –
E31 [2], 1000 nM | 4.14 | –
E31 [2], 3000 nM | 3.26 | –
E31 [9], 4.1 nM | – | 0.175
E31 [9], 12.3 nM | – | 0.112
E31 [9], 37 nM | – | 0.146
E31 [9], 111.1 nM | – | 0.157
E31 [9], 333.3 nM | – | 0.134
E31 [9], 1000 nM | – | 0.164
E31 [9], 3000 nM | – | 0.2
E34 [1], 4.1 nM | 4.14 | –
E34 [1], 12.3 nM | 3.76 | –
E34 [1], 37 nM | 3.17 | –
E34 [1], 111.1 nM | 3.96 | –
E34 [1], 333.3 nM | 3.99 | –
E34 [1], 1000 nM | 3.89 | –
E34 [1], 3000 nM | 3.75 | –
E34 [8], 4.1 nM | – | 0.43
E34 [8], 12.3 nM | – | 0.452
E34 [8], 37 nM | – | 0.497
E34 [8], 111.1 nM | – | 0.38
E34 [8], 333.3 nM | – | 0.438
E34 [8], 1000 nM | – | 0.423
E34 [8], 3000 nM | – | 0.551
E57 [4], 4.1 nM | 5.76 | –
E57 [4], 12.3 nM | 5.68 | –
E57 [4], 37 nM | 5.22 | –
E57 [4], 111.1 nM | 5.42 | –
E57 [4], 333.3 nM | 5.4 | –
E57 [4], 1000 nM | 5.4 | –
E57 [4], 3000 nM | 5.26 | –
E57 [11], 4.1 nM | – | 0.0834
E57 [11], 12.3 nM | – | 0.0809
E57 [11], 37 nM | – | 0.078
E57 [11], 111.1 nM | – | 0.0677
E57 [11], 333.3 nM | – | 0.0873
E57 [11], 1000 nM | – | 0.0902
E57 [11], 3000 nM | – | 0.109
FT3469 [7], 4.1 nM | 4.07 | –
FT3469 [7], 12.3 nM | 4.02 | –
FT3469 [7], 37 nM | 3.93 | –
FT3469 [7], 111.1 nM | 4.46 | –
FT3469 [7], 333.3 nM | 4.18 | –
FT3469 [7], 1000 nM | 4.11 | –
FT3469 [7], 3000 nM | 4.57 | –
FT3469 [14], 4.1 nM | – | 0.529
FT3469 [14], 12.3 nM | – | 0.614
FT3469 [14], 37 nM | – | 0.452
FT3469 [14], 111.1 nM | – | 0.513
FT3469 [14], 333.3 nM | – | 0.572
FT3469 [14], 1000 nM | – | 0.497
FT3469 [14], 3000 nM | – | 0.556
